{"source": "patent US9963457B2", "about": "“Crystal of 5-((2-(6-amino)-9H-purin-9-yl)ethyl)amino)pentan-1-o1” (FOREVER CHEER INTERNATIONAL LIMITED, priority 2016, dated 2018)", "key": {"[1]": {"test_system": "mice treated with yeast polysaccharide", "assay": "Bright/dark box test, visceral pain", "format": "in vivo", "details": "3 mg/kg IP", "procedure": "(§1) The visceral pain is induced by injecting yeast polysaccharide into the mice colony, and the yeast polysaccharide is derived from Saccharomyces cerevisiae (Sigma), wherein one kind of dextran is resident on the cell wall of the yeast and is identified as a protein-carbohydrate complex. Specifically, the mice were anesthetized after inhaling 1-3% isoflurane, and then a […] suspension of yeast polysaccharide (formulated as a 30 mg/ml solution in physiological saline) was injected into the colon of the mice by using a 24 mm long plastic feed needle within 2 minutes. The control group was injected with 0.1 ml physiological saline. The yeast polysaccharide or physiological saline was injected daily for 3 days. A visceral pain behavior test was carried out according to the Laird procedure. The number of times the mice licking the abdomen within 10 minutes was recorded, excluding other grooming behaviors, stretching of whole body, pressing the abdomen against the floor, and an 1-2-second arched posture. On day 1, 7 and 14 after the injection into the colon, an open field test was carried out from 9 am to 12 pm, and the entire test was a double-blind test. Prior to the behavioral test, the mice were acclimated for 30 minutes in an observation room. The mice were placed at the middle of a new open zone (43.2×43.2×30.5 cm^3) with micro light (<50 lux) and a fan. The movement distance, vertical count, movement count, stereotypic behavior count, and jumping count of animals were recorded within 30 minutes by means of an activity monitoring system equipped with multiple pairs of packaged light beam sets.\nBright/dark box test: The test procedure was carried out by using an improved method in accordance with the prior art. The device was composed of a rectangular organic glass box (44×8.5×25 cm^3), which is separated into bright and dark compartments with the equal size by using a door. A 60 watt lamp (400 lux) in turn-on state was placed at 30 cm above the box to irradiate the bright compartment. Each animal was first placed in the dark compartment for 20 seconds, and then the door leading to the bright compartment was open. The time each animal stayed in the dark compartment and the time each animal enters the bright compartment within 10 minutes were recorded.\nIn order to confirm the effect of the crystal of the present invention on inhibiting anxiety, mice were subjected to a bright/dark box test, and the results were as shown in Table 8. The physiological saline, non-crystalline NB001 (3 mg/kg), the crystal of the present invention (3 mg/kg), and Gabapentin (30 mg/kg) as a positive control were intraperitoneally injected (IP) into the mice treated with yeast polysaccharide respectively. The behaviors of Mice were observed 28 days after the yeast polysaccharide treatment."}, "[2]": {"test_system": "mice treated with yeast polysaccharide", "assay": "Elevated plus maze test (EPM), visceral pain", "format": "in vivo", "details": "3 mg/kg IP", "procedure": "as §1\nAn anxious animal model of the prior art—the elevated plus maze test (EPM) was adopted. The mice were acclimated for 30 minutes in the room prior to the behavior observation. The EPM was composed of two open arms (250 lux) and two closed arms (350 lux) arranged opposite to each other. For each test, an individual animal was placed at the center of the test position and allowed to move freely. The test is carried out for 5 minutes. The number of entering the test position for each arm and the time spent therefore were recorded.\nThe EPM test tested the anxiety behavior of mice after the test treatment. The physiological saline, non-crystalline NB001 (3 mg/kg), the crystal of the present invention (3 mg/kg), and Gabapentin (30 mg/kg) as a positive control were intraperitoneally injected (IP) into the mice treated with yeast polysaccharide respectively. The behaviors of Mice were observed 28 days after the yeast polysaccharide treatment."}, "[3]": {"test_system": "bone cancer pain model in rat (Walker 256 cells)", "assay": "Paw withdrawal thermal latency (PWL) in bone cancer pain model", "format": "in vivo, SD rats", "details": "20 mg/kg, i.g.", "procedure": "1. Animals 50 SD rats (180-220 g), placed under a quiet and warm (22° C.) environment without strong light irradiation, having free access to feed and water.\n2. Cell Culture: SD Rat homologous cancer cell strains Walker 256 preserved by the Laboratory Animal Center, Forth Military Medical\nUniversity, or a commercially available product can be used. RPMI 1640 culture medium (Gibco Inc. of US, containing 100 U/ml each of 10% fetal bovine serum, penicillin, and streptomycin) was used, and the tumor cells were incubated as suspension cells in a 37° C. incubator under 5% CO2, with the medium replaced every other day, and 2 days for 1 passage. The cells were harvested at the 3rd passage, with a cell concentration of 2×10^5/10 μl.\n3. Establishment of bone cancer pain model in rat: the rats were operated at the left knee with a small incision after anesthesia (40 mg/kg of pentobarbital sodium) according to sterile surgical operation procedures, the muscle was stripped off gently and the patellar ligament is cut open to expose the distal femur, with 1 mm syringe needle inserted from the intercondylar fossa vertically into the marrow cavity, with an inserting distance no more than 5 mm to prevent punching. Then a 20 μl micro-injector was inserted into the marrow cavity to slowly inject 10 μl of a suspension containing the Walker 256 cells (2×10^5 cancer cells per 10 μl). The injector was stayed there for a few minutes after the injection, and then the needle pinhole was immediately sealed with sterile bone wax. The tumor cells leaking out of the marrow cavity were killed with 75% ethyl alcohol, and then the rat was sutured under sterile conditions layer by layer. The same operation was performed in the sham operation group, except that only the same volume of sterile saline was injected into the marrow cavity slowly.\n6. Drug intervention: On day 18 after the surgical operation, the SD rats of the operation group were randomized into 6 groups, i.e., respectively the model group; non-crystalline NB001 group (20 mg/kg, i.g.); the group of the crystal of the present invention (20 mg/kg, i.g.); morphine (2 mg/kg, i.p.); and gabapentin (100 mg/kg, i.g.). The new crystal form and non-crystalline form of the AC1 inhibitor NB001 were both formulated with sterile saline, and morphine and gabapentin were used as positive control drugs. All drugs were administered twice daily for 3 days, and the pain threshold was measured within 2 hours after the last administration on day 3\n7. Assessment of rat pain behavior:\nPaw withdrawal thermal latency (PWL): the PWL was measured by using a PL-200 thermal pain stimulator (8V, 50 W, with a strength of 100%). The time period since the time irradiating the middle portion of the planta pedis at the operation side of the rat with light till the time the rat lifted its leg to keep out of the light was TWL. To prevent tissue injury, a cut-off time of 80 s was set, each rat was measured for 3 times with an interval of 5 min, and the results were averaged."}}}
{"smiles": "Nc1ncnc2c1ncn2CCNCCCCCO", "note": "[New NB001, 5-(((2-(6-amino)-9H-purin-9-yl)ethyl)amino)pentan-1-ol]", "values": [{"measurement": "therapeutic effect in bright/dark box test as compared with the positive control group", "setting": "[1]; Table 8, listed as the crystal of the present invention", "result": "extremely significant"}, {"measurement": "% time in the open arm", "setting": "[1]; Bright/dark box test, Visceral pain, 3 mg/kg", "result": "10.3 ± 1.2 (8) %"}, {"measurement": "therapeutic effect in EPM test as compared with the positive control group", "setting": "[2]; Table 7, listed as the crystal of the present invention", "result": "extremely significant"}, {"measurement": "% time in the open arm", "setting": "[2]; Visceral pain, 3 mg/kg", "result": "10.3 ± 1.2 (8) %"}, {"measurement": "analgesic effect (PWL) as compared with the model group", "setting": "[3]; twice daily for 3 days, PWL at 2 h after last administration (21d)", "result": "better analgesic effect"}, {"measurement": "significance of the analgesic effect (PWL), FIG. 7", "setting": "[3]; P<0.01", "result": "extremely significant"}]}
